Reference: patent US20100256105A1, “NOVEL COMPOUNDS” (AstraZeneca R&D, priority 2009, published 2010)

Biological target: T1, recombinant human GR (Homo sapiens, UniProt P04150)
T1 construct: purchased Panvera/Invitrogen P2812 (kit P2893)
T1 sequence (P04150 1-777): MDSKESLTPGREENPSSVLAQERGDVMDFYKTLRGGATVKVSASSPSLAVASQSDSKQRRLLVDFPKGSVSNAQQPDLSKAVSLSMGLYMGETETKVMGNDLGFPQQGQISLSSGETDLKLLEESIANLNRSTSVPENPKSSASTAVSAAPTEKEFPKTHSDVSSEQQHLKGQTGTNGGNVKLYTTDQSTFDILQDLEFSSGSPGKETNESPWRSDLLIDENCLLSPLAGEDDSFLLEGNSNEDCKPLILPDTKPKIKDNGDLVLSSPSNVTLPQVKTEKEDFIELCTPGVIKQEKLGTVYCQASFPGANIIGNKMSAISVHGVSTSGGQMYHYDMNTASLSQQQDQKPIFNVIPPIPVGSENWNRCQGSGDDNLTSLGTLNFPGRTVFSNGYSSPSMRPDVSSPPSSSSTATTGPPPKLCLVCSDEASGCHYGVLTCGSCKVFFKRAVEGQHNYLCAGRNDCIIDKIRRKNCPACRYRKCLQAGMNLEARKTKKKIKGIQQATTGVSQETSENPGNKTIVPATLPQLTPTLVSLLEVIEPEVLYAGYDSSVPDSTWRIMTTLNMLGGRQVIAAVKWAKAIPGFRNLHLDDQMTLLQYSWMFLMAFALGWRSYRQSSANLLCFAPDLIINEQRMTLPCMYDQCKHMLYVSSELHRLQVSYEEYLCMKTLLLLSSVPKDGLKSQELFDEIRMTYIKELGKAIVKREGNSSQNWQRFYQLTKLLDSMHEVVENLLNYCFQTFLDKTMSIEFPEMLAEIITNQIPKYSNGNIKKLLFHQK
Assay: Human Glucocorticoid Receptor (GR) Assay, fluorescence polarization
Conditions: GS Red tracer, 2 hours at room temperature, 100% control 10 μM Dexamethasone, read-out: Inhibition of GR binding, IC50
Procedure: Human Glucocorticoid Receptor (GR) Assay The assay is based on a commercial kit from Panvera/Invitrogen (Part number P2893). The assay technology is fluorescence polarization. The kit utilises recombinant human GR (Panvera, Part number P2812), a Fluoromone™ labelled tracer (GS Red, Panvera, Part number P2894) and a Stabilizing Peptide 10× (Panvera, Part number P2815). The GR and Stabilizing Peptide reagents are stored at −70° C. while the GS Red is stored at −20° C. Also included in the kit are 1M DTT (Panvera, Part number P2325, stored at −20° C.) and GR Screening buffer 10× (Panvera, Part number P2814, stored at −70° C. initially but once thawed stored at room temperature). Avoid repeated freeze/thaws for all reagents. The GR Screening buffer 10× comprises 100 mM potassium phosphate, 200 mM sodium molybdate, 1 mM EDTA and 20% DMSO. Test compounds (1 μL) and controls (1 μL) in 100% DMSO were added to black polystyrene 384-well plates (Greiner low volume black flat-bottom, part number 784076). 0% control was 100% DMSO and 100% control was 10 μM Dexamethasone. Background solution (8 μL; assay buffer 10×, Stabilizing Peptide, DTT and ice cold MQ water) was added to the background wells. GS Red solution (7 μL; assay buffer 10×, Stabilizing Peptide, DTT, GS Red and ice cold water) was added to all wells except background wells. GR solution (7 μL; assay buffer 10×, Stabilizing Peptide, DTT, GR and ice cold water) was added to all wells. The plate was sealed and incubated in a dark at room temperature for 2 hours. The plate was read in an Analyst plate reader (LJL Biosystems/Molecular Devices Corporation) or other similar plate reader capable of recording fluorescence polarization (excitation wavelength 530 nm, emission wavelength 590 nm and a dichroic mirror at 561 nm).

IC50	Structure (SMILES)
1 nM	C[C@]12Cc3cnn(-c4ccc(F)nc4)c3C=C1C=C[C@@H]1[C@@H]2[C@@H](O)C[C@@]2(C)[C@H]1CC[C@]2(OC(=O)C1CC1)C(=O)SCC#N [Example 9, (1R,3aS,3bS,10aR,10bS,11S,12aS)-1-{[(cyanomethyl)sulfanyl]carbonyl}-7-(6-fluoropyridin-3-yl)-11-hydroxy-10a,12a-dimethyl-1,2,3,3a,3b,7,- 10,10a,10b,11,12,12a-dodecahydro-cyclopenta[5,6]naphtho[1,2-f]indazol-1-yl cyclopropanecarboxylate]
1.5 nM	COCC(=O)O[C@]1(C(=O)SCF)CC[C@H]2[C@@H]3C=C(C)C4=Cc5c(cnn5-c5ccc(F)nc5)C[C@]4(C)[C@H]3[C@@H](O)C[C@@]21C [Example 16, (1R,3aS,3bS,10aR,11S,12aS)-1-{[(fluoromethyl)sulfanyl]carbonyl}-7-(6-fluoropyridin-3-yl)-11-hydroxy-5,10a,12a-trimethyl-1,2,3,3a,3b,7,10,10a,10b,11,12,12a-dodecahydrocyclopenta[5,6]naphtho [1,2-f]indazol-1-yl methoxyacetate]
0.83 nM	CCC(=O)O[C@]1(C(=O)SCC#N)CC[C@H]2[C@@H]3C=CC4=Cc5c(cnn5-c5ccc(F)nc5)C[C@]4(C)[C@H]3[C@@H](O)C[C@@]21C [Example 10, (1R,3aS,3bS,10aR,10bS,11S,12aS)-1-{[(cyanomethyl)sulfanyl]carbonyl}-7-(6-fluoropyridin-3-yl)-11-hydroxy-10a,12a-dimethyl-1,2,3,3a,3b,7,10,10a,10b,11,12,12a-dodecahydrocyclopenta[5,6]naphtho [1,2-f]indazol-1-yl propanoate]
1.4 nM	C[C@]12Cc3cnn(-c4ccc(F)nc4)c3C=C1C=C[C@@H]1[C@@H]2[C@@H](O)C[C@@]2(C)[C@H]1CC[C@]2(OC(=O)C1CC1)C(=O)SCF [Example 8, (1R,3aS,3bS,10aR,10bS,11S,12aS)-1-{[(fluoromethyl)sulfanyl]carbonyl}-7-(6-fluoropyridin-3-yl)-11-hydroxy-10a,12a-dimethyl-1,2,3,3a,3b,7,10,10a,10b,11,12,12a-dodecahydrocyclopenta[5,6]naphtho [1,2-f]indazol-1-yl cyclopropanecarboxylate]
3.7 nM	CC1=C[C@@H]2[C@H]([C@@H](O)C[C@@]3(C)[C@H]2CC[C@]3(OC(=O)c2cocn2)C(=O)SCC#N)[C@@]2(C)Cc3cnn(-c4ccc(F)nc4)c3C=C12 [Example 15, (1R,3aS,3bS,10aR,10bS,11S,12aS)-1-{[cyanomethyl)sulfanyl]carbonyl}-7-(6-fluoropyridin-3-yl)-11-hydroxy-5,10a,12a-trimethyl-1,2,3,3a,3b,7,10,10a,10b,11,12,12a-dodecahydrocyclopenta[5,6]naphtho [1,2-f]indazol-1-yl 1,3-oxazole-4-carboxylate]
3.6 nM	CCC(=O)O[C@]1(C(=O)SCF)CC[C@H]2[C@@H]3C=C(C)C4=Cc5c(cnn5-c5ccc(F)nc5)C[C@]4(C)[C@H]3[C@@H](O)C[C@@]21C [Example 11, (1R,3aS,3bS,10aR,10bS,11S,12aS)-1-{[(fluoromethyl)sulfanyl]carbonyl}-7-(6-fluoropyridin-3-yl)-11-hydroxy-5,10a,12a-trimethyl-1,2,3,3a,3b,7,10,10a,10b,11,12,12a-dodecahydrocyclopenta[5,6]naphtho [1,2-f]indazol-1-yl propanoate]
0.8 nM	COCC(=O)O[C@]1(C(=O)SCF)CC[C@H]2[C@@H]3C=CC4=Cc5c(cnn5-c5ccc(F)nc5)C[C@]4(C)[C@H]3[C@@H](O)C[C@@]21C [Example 4, (1R,3aS,3bS,10aR,10bS,11S,12aS)-1-{[(Fluoromethyl)sulfanyl]carbonyl}-7-(6-fluoropyridin-3-yl)-11-hydroxy-10a,12a-dimethyl-1,2,3,3a,3b,7,10,10a,10b,11,12,12a-dodecahydrocyclopenta[5,6]naphtho[1,2-f]indazol-1-yl methoxyacetate]
12 nM	CC1=C[C@@H]2[C@H]([C@@H](O)C[C@@]3(C)[C@H]2C[C@@H](C)[C@]3(OC(=O)c2ccco2)C(=O)SCC#N)[C@@]2(C)Cc3cnn(-c4ccccc4)c3C=C12 [Example 18, (1R,2R,3aS,3bS,10aR,10bS,11S,12aS)-1-{[(cyanomethyl)sulfanyl]carbonyl}-11-hydroxy-2,5,10a,12a-tetramethyl-7-phenyl-1,2,3,3a,3b,7,10,10a,- 10b,11,12,12a-dodecahydro-cyclopenta[5,6]naphtho[1,2-f]indazol-1-yl furan-2-carboxylate]
1.6 nM	CC1=C[C@@H]2[C@H]([C@@H](O)C[C@@]3(C)[C@H]2CC[C@]3(OC(=O)C2CC2)C(=O)SCF)[C@@]2(C)Cc3cnn(-c4ccc(F)nc4)c3C=C12 [Example 12, (1R,3aS,3bS,10aR,10bS,11S,12aS)-1-{[(fluoromethyl)sulfanyl]carbonyl}-7-(6-fluoropyridin-3-yl)-11-hydroxy-5,10a,12a-trimethyl-1,2,3,3a,3b,7,- 10,10a,10b,11,12,12a-dodecahydro-cyclopenta[5,6]naphtho[1,2-f]indazol-1-yl cyclopropanecarboxylate]
2.1 nM	CCC(=O)O[C@]1(C(=O)SCC#N)CC[C@H]2[C@@H]3C=C(C)C4=Cc5c(cnn5-c5ccc(F)nc5)C[C@]4(C)[C@H]3[C@@H](O)C[C@@]21C [Example 2, (1R,3aS,3bS,10aR,10bS,11S,12aS)-1-{[(Cyanomethyl)sulfanyl]carbonyl}-7-(6-fluoropyridin-3-yl)-11-hydroxy-5,10a,12a-trimethyl-1,2,3,3a,3b,7,10,10a,10b,-11,12,12a-dodecahydrocyclopenta[5,6]naphtho[1,2-f]indazol-1-yl propanoate]
1.5 nM	C[C@]12Cc3cnn(-c4ccc(F)nc4)c3C=C1C=C[C@@H]1[C@@H]2[C@@H](O)C[C@@]2(C)[C@H]1CC[C@]2(OC(=O)c1cocn1)C(=O)SCF [Example 5, (1R,3aS,3bS,10aR,10bS,11S,12aS)-1-{[(fluoromethyl)sulfanyl]carbonyl}-7-(6-fluoropyridin-3-yl)-11-hydroxy-10a,12a-dimethyl-1,2,3,3a,3b,7,10,10a,10b,11,12,12a-dodecahydrocyclopenta[5,6]naphtho [1,2-f]indazol-1-yl 1,3-oxazole-4-carboxylate]
4.8 nM	CCC(=O)O[C@]1(C(=O)SCC#N)[C@H](C)C[C@H]2[C@@H]3C=C(C)C4=Cc5c(cnn5-c5ccccc5)C[C@]4(C)[C@H]3[C@@H](O)C[C@@]21C [Example 17, (1R,2R,3aS,3bS,10aR,10bS,11S,12aS)-1-{[(cyanomethyl)sulfanyl]carbonyl}-11-hydroxy-2,5,10a,12a-tetramethyl-7-phenyl-1,2,3,3a,3b,7,10,10a,- 10b,11,12,12a-dodecahydro-cyclopenta[5,6]naphtho[1,2-f]indazol-1-yl propanoate]
0.87 nM	COCC(=O)O[C@]1(C(=O)SCC#N)CC[C@H]2[C@@H]3C=CC4=Cc5c(cnn5-c5ccc(F)nc5)C[C@]4(C)[C@H]3[C@@H](O)C[C@@]21C [Example 7, (1R,3aS,3bS,10aR,10bS,11S,12aS)-1-{[(cyanomethyl)sulfanyl]carbonyl}-7-(6-fluoropyridin-3-yl)-11-hydroxy-10a,12a-dimethyl-1,2,3,3a,3b,7,10,10a,10b,11,12,12a-dodecahydrocyclopenta[5,6]naphtho [1,2-f]indazol-1-yl methoxyacetate]
